Data: patent US20260242366A1, “STING AGONISTS CONTAINING HYDRAZIDE, HYDRAZINE, AND HYDROXAMIC ACID FUNCTIONAL GROUPS” (BioNTech SE, priority 2023, published 2026)
pEC50, pKd: −log10 of the molar value. Like-named read-outs stand apart in the source and are kept apart here.

Legend:
human STING = molecular target: T1, human STING (Homo sapiens, UniProt Q86WV6); experiment: Affinity measurement assay (Biacore T200 SPR); conditions: biotinylated human STING, 25° C., 1:1 binding model, read-out: Affinity (Kd) rhSTING
T1 construct: fused on or other part: His tag; chemically biotinylated (Sulfo-NHS-LC-Biotin) for capture on the chip
Method: T7 Shuffle E. coli cells, transformed with an expression vector encoding either a truncated version of human or murine His-tagged STING, were cultivated overnight in 50 mL LB media. 200 mL of LB media were inoculated to an OD600 of 0.05 and cells were grown at 37° C. at 120 rpm until an OD600 of 0.5 was reached. Protein expression was induced using 1 mM IPTG and cells were further cultivated at 30° C. over night. Cells were harvested by centrifugation at 4000 rpm for 30 min at 4° C. and frozen at −80° C. Subsequently, cells were thawed and resuspended in 30 mL IMAC-Buffer A (10 mM HEPES, 50 mM NaCl, 10 mM Imidazole, 250 mM L-Arginine, 10% Glycerol, pH 7.1) supplemented with 15 U/mL benzonase, 0.2 mg/mL MgCl2 and 0.1 mg/mL lysozyme. Lysis was performed by five sonification cycles with an amplitude of 25% and a pulse for 2 s, with 5 min incubation on ice between cycles. The lysate was centrifuged for 15 min at 16.000 g and the supernatant was filtrated (0.22 μm). Purification of STING was done using an ÄKTA prime chromatography system. A 1 mL His Trap excel column was equilibrated with IMAC-Buffer A before lysate was applied. After washing with multiple column volumes of buffer, STING was eluted using a linear gradient of IMAC-Buffer B (10 mM HEPES, 50 mM NaCl, 500 mM Imidazole, 250 mM L-Arginine, 10% Glycerol, pH 7.1). Elution fractions were analyzed by SDS-PAGE and STING containing fractions were mixed. Using the Äkta pure system in combination with a HiLoad Superdex 16/600 75 pg column, STING was further purified by preparative size-exclusion chromatography. Fractions were analyzed by SDS-PAGE and STING containing fractions were combined.
Purified proteins were biotinylated using EZ-Link Sulfo-NHS-LC-Biotin (Life Technologies GmbH) in ten-fold excess for 2 h on ice. The reaction was quenched by addition of 100 mM Tris pH8 and 1 h incubation on ice. Remaining biotin was removed by performing buffer exchange to PBS using Zeba Spin Desalting Columns, 7K MWCO, 0.5 mL (Thermo Fischer). Protein concentrations were determined using the Nanodrop system.
Affinity measurement of STING-binding compounds were performed using the Biacore T200 SPR system (GE Healthcare, Biacore T200 control Software 3.2). Therefore, the Biotin CAPture kit, series S (Cytiva Europe, Cat.no. 28920234) was utilized. A freshly docked Biotin CAPture chip was rehydrated overnight in the instrument (standby mode). The following day, the chip surface was conditioned three times with regeneration solution (6 M guanidine-HCl, 0.25 M NaOH) for 60 s at 10 μL/min on flow cell (FC) 1 and FC2. Subsequently, the Biotin CAPture reagent (Cytiva Europe, Cat.no. 29423383) was applied for 300 s at 2 μL/min on FC1 and FC2, followed by capturing of 100 nM biotinylated murine or 150 nM biotinylated human STING, respectively. […]

[1] = test system: PBMCs from healthy donors; experiment: PBMC assay, dose-dependent cytokine induction; format: cell-based; conditions: Homo sapiens, 24 h
Method: Compounds I-A to IV were additionally tested on PBMCs from healthy donors to determine the dose-dependent cytokine induction. PBMCs from buffy coats were thawed on the day of the experiment and seeded with a density of 5×10^5 cells per well (96-well format, RPMI with 5% Human Serum+1% MEM Non-Essential Amino Acids+1% Sodium Pyruvate). In line with the experiment above, a serial dilution of the compounds was prepared and added to the cells for 24 hours. On the next days, cells were centrifuged and supernatants harvested for a cytokine readout based on a multiplex assay kit from mesoscale discovery (customized multiplex panel for the cytokines: IFNα2a, IFNβ, TNFα and IL6). Impact on cell viability was determined by CellTiter Glo2.0 from promega (Cat. G9241). Both experimental read outs were performed according to the manufacturer's instructions.

4T1 cells = experiment: Anti-tumoral efficacy in murine 4T1 breast cancer model; format: in vivo, Balb/c Rj mice
Method: The anti-tumoral efficacy of compound I-D was tested in a murine 4T1 breast cancer model. Balb/c Rj mice were injected subcutaneously with 1×10^5 4T1 cells. Three doses of compound I-D formulated in 5% Solutol in 2.5% glucose (31 nmol, 3.1 nmol and 0.31 nmol) or the vehicle control (5% Solutol in 2.5% glucose) were administered intratumorally at days 11, 16 and 21 after inoculation. Tumor size was monitored using BioVolume® (calculating the tumor size based on RGB, thermal and 3D model data) until day 21, when animals were sacrificed and tumor cytokines were analyzed compared to serum 3 h after final agonist injection. To evaluate the statistical significance of tumor volume reduction compared to the vehicle control, a 2way ANOVA test was used: *** p<0.0001.

[2] = test system: STING signaling (IRF and NFKB-pathway activation) in THP1 Dual Cells; experiment: THP-1 assay (THP1 Dual reporter cells, IRF / NFkB pathway activation); format: cell-based; conditions: Homo sapiens; THP1 Dual cells, 24 h incubation, IRF pathway; read-out: THP-1 EC50 (IRF)
Method: THP1 Dual Cells™, were purchased from Invivogen (Cat. thpd-nfis), and used to determine the biological activity of the compounds on a molecular level and to determine downstream activation of STING signaling (IRF and NFKB-pathway activation). Briefly, cultured cells were seeded on the day of the experiment with a density of 1×10^5 cells per well (96-well format in RPMI supplemented with 25 mM HEPES, 10% heat inactivated FCS,). A serial dilution of the compounds was prepared and added to the cells for a total incubation time of 24 hours. The test items were tested in 8 concentrations to determine a dose-dependent activation of the NFKB and the IRF pathway. After 24 h cells were centrifuged and supernatants harvested for the detection of secreted alkaline phosphatase (measured by QUANTI-Blue™ detection solution; Cat. rep-qbs Invivogen) or lucia luciferase (measured by QUANTI-Luc™ reagent; Cat. rep-qlc1, Invivogen), respectively. The read outs were be performed according to the manufacturer's instructions. EC50 values were calculated using GraphPad Prism 9.

[3] = IFNβ in supernatant, read-out: PBMC EC50 (μM) for IFNβ
[4] = tumor, 3 h after final agonist injection, day 21
[5] = IFNα in supernatant, read-out: PBMC EC50 (μM) for IFNα

T1 sequence (Q86WV6 153-340 limits assumed): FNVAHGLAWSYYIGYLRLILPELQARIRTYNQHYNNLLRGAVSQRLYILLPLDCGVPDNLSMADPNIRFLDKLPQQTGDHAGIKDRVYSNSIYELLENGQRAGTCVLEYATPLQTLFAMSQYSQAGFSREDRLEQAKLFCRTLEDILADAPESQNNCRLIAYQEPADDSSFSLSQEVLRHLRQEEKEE

| SMILES | pKd (human STING) | EC50 [1, 3] | Tumor size (BioVolume) compared to vehicle control (4T1 cells; 31, 3.1 and 0.31 nmol intratumorally at days 11, 16 and 21, until day 21) | IFNα level in the tumor compared to diABZI (4T1 cells; [4]) | IFNγ level in the tumor compared to diABZI (4T1 cells; [4]) | EC50 [1, 5] | pEC50 [2] |
| --- | --- | --- | --- | --- | --- | --- | --- |
| CCn1nc(C)cc1C(=O)Nc1nc2cc(C(N)=O)cc(OC)c2n1C/C=C/Cn1c(NC(=O)c2cc(C)nn2CC)nc2cc(C(=O)NN)cc(OCCCN3CCOCC3)c21 [III] | 9.50 | 0.387 µM | – | – | – | – | – |
| CCn1nc(C)cc1C(=O)Nc1nc2cc(C(N)=O)cc(OC)c2n1C/C=C/Cn1c(NC(=O)c2cc(C)nn2CC)nc2cc(C(N)=O)cc(OCCCC(=O)N(C)NC)c21 [I-D] | 11.38 | 0.265 µM | marked decrease in tumor size | higher levels | higher levels | 0.26 µM | – |
| CCn1nc(C)cc1C(=O)Nc1nc2cc(C(=O)NNC)cc(OC)c2n1C/C=C/Cn1c(NC(=O)c2cc(C)nn2CC)nc2cc(C(N)=O)cc(OCCCN3CCOCC3)c21 [II-B] | 9.02 | 1.16 µM | – | – | – | 1.95 µM | 5.56 |
| CCn1nc(C)cc1C(=O)Nc1nc2cc(C(=O)N(C)NC)cc(OC)c2n1C/C=C/Cn1c(NC(=O)c2cc(C)nn2CC)nc2cc(C(N)=O)cc(OCCCN3CCOCC3)c21 [II-D] | 8.54 | 0.821 µM | – | – | – | 1.14 µM | – |
